Converted amounts (≈) assume the structure as drawn. Like-named read-outs stand apart in the source and are kept apart here.
Key:
Salmonella typhi [1] = test: Inhibition zone, agar plate diffusion; type: cell-based; details: Salmonella enterica, St, mm ± standard deviation, sample at 0.5 mg/mL, read-out: Inhibition zone (IZ)
Procedure: (§1) Antimicrobial activities of the newly formed Schiff bases (6a–d, 7a–d, 8a–d, and 9a–d) and reference drugs were evaluated against three Gram-positive, three Gram-negative, and two fungi strain at Al-Azhar University, Cairo, Egypt. The inhibition zones (IZ, in mm ± standard deviation) and the minimal inhibitory concentration (MIC) (μg/mL) were determined by the conventional paper disk diffusion method.
(§2) In Vitro Antimicrobial Activities
(§3) The antimicrobial activities inhibition zone (IZ, mm±standard deviation) of pyrazole Schiff bases ( 6a-d , 7a-d, 8a-d and 9a-d ) was measurement according to the agar plate diffusion method. Briefly, 100 µl of the […]
(§4) […] of each sample (at 0.5 mg/mL) was added to each well (10 mm diameter holes cut in the agar gel). The plates were incubated for 24 h at 37 °C (for bacteria and yeast) and for 72 h at 27 °C (for filamentous fungi), each test was repeated three times. After incubation, the microorganism's growth was observed. […]
(§5) drugs while Amphotericin B was used as standard antifungal drug. The resulting inhibition zone diameters were measured in millimeters and used as criterion for the antimicrobial activity. Solvent controls (DMSO) were included in every experiment as negative controls. DMSO was used for dissolving […]
(§6) the tested microorganisms. […]
(§7) Bacteria were grown on nutrient agar medium, while fungi and yeast were grown on Sabouraud agar medium. […]

Candida albicans [2] = test: Inhibition zone, agar plate diffusion; type: cell-based; details: read-out: Inhibition zone (IZ)
Procedure: as §1, §2, §3, §4, §5, §6, §7

Staphylococcus aureus [3] = test: Inhibition zone, agar plate diffusion; type: cell-based; details: read-out: Inhibition zone (IZ)
Procedure: as §1, §2, §3, §4, §5, §6, §7

Fusarium oxysporum [4] = test: Inhibition zone, agar plate diffusion; type: cell-based; details: read-out: Inhibition zone (IZ)
Procedure: as §1, §2, §3, §4, §5, §6, §7

Pseudomonas aeruginosa [5] = test: Inhibition zone, agar plate diffusion; type: cell-based; details: read-out: Inhibition zone (IZ)
Procedure: as §1, §2, §3, §4, §5, §6

Enterococcus faecalis [6] = test: Inhibition zone, agar plate diffusion; type: cell-based; details: read-out: Inhibition zone (IZ)
Procedure: as §1, §2, §3, §4, §5, §6

Bacillus subtilis [7] = test: Inhibition zone, agar plate diffusion; type: cell-based; details: read-out: Inhibition zone (IZ)
Procedure: as §1, §2, §3, §4, §5, §6

Escherichia coli [8] = test: Inhibition zone, agar plate diffusion; type: cell-based; details: read-out: Inhibition zone (IZ)
Procedure: as §1, §2, §3, §4, §5, §6

E. coli ATCC BAA-196 [9] = test: Inhibition zone against MDRB, agar plate diffusion; type: cell-based
[10] = system: S. aureus ATCC 43300 (MRSA); test: Inhibition zone against MDRB, agar plate diffusion; type: cell-based
[11] = system: mammary gland breast cancer cell line (MCF-7); test: Antiproliferative activity, MTT assay; type: cell-based, human; details: Homo sapiens, MCF7, 48 h, read-out: IC50 MCF-7
Procedure: (§8) 3-[4, 5-Dimethyl-2-thiazolyl)-2, 5-diphenyl-2 H-tetrazolium bromide (MTT) protocol is based on the cleavage of the tetrazolium salt by mitochondrial dehydrogenases in viable cells. Cells were dispensed in a 96 well sterile microplate (5 x 10^4 cells/well), and incubated at 37 °C with series of different concentrations, in DMSO, of each tested compound or Doxorubicin ® (positive control) for 48 h in a serum free medium prior to the MTT assay. After incubation, media were carefully removed, 40 µL of MTT (2.5 mg/mL) were added to each well and then incubated for an additional 4 h. The purple formazan dye crystals were solubilized by the addition of 200 µL of DMSO. The absorbance was measured at 590 nm using a SpectraMax® Paradigm® Multi-Mode microplate reader. The relative cell viability was expressed as the mean percentage of viable cells compared to the untreated control cells.
(§9) All experiments were conducted in triplicate and repeated in three different days. All the values were represented as mean ± SD. IC 50s were determined by probit analysis using SPSS software program (SPSS

[12] = system: hepatocellular carcinoma cell line (HepG2); test: Antiproliferative activity, MTT assay; type: cell-based, human; details: Homo sapiens, HepG2, 48 h, read-out: IC50 HepG-2
Procedure: as §8, §9

Pseudomonas aeruginosa [13] = test: MIC/MBC, paper disk diffusion; type: cell-based; details: for MBC: P. aeruginosa
Procedure: as §1
(§10) In Vitro Antimicrobial Activities […]
(§11) DMSO was used for dissolving […]
(§12) the tested microorganisms.
(§13) The minimum inhibitory concentration (MIC), the minimum bactericidal concentration (MBC, µg/ml) and […]
(§14) and 9b) were determined by the conventional technique termed paper disk diffusion, by applying paper […]
(§15) Bacteria were grown on nutrient agar medium, while fungi and yeast were grown on Sabouraud agar medium. The purified streptomycin was dissolved in […]
(§16) inoculated with test organism. Growth inhibition was examined after 24 hr. from incubation at 37 °C for bacteria and after 72 hr. incubation at 27 °C for fungi and yeast. Each test was repeated three times. MIC was expressed as the lowest concentration inhibiting test organism’s growth. […]

Salmonella typhi [14] = test: MIC/MBC, paper disk diffusion; type: cell-based; details: Salmonella enterica, S. typhi
Procedure: as §1, §10, §11, §12, §13, §14, §15, §16

Enterococcus faecalis [15] = test: MIC/MBC, paper disk diffusion; type: cell-based
Procedure: as §1, §10, §11, §12, §13, §14, §15, §16

Bacillus subtilis [16] = test: MIC/MBC, paper disk diffusion; type: cell-based
Procedure: as §1, §10, §11, §12, §13, §14, §15, §16

Staphylococcus aureus [17] = test: MIC/MBC, paper disk diffusion; type: cell-based; details: Staphylococcus aureus
Procedure: as §1, §10, §11, §12, §13, §14, §15, §16

Escherichia coli [18] = test: MIC/MBC, paper disk diffusion; type: cell-based; details: Escherichia coli
Procedure: as §1, §10, §11, §12, §13, §14, §15, §16

Candida albicans [19] = test: MIC/MFC, paper disk diffusion; type: cell-based; details: Candida albicans
Procedure: as §1, §10, §11, §12, §13, §14, §15, §16

Fusarium oxysporum [20] = test: MIC/MFC, paper disk diffusion; type: cell-based; details: Fusarium oxysporum
Procedure: as §1, §10, §11, §12, §13, §14, §15, §16

[21] = system: P. aeruginosa ATCC BAA-2111; test: Inhibition zone against MDRB, agar plate diffusion; type: cell-based
E. coli ATCC BAA-196 [22] = test: MIC/MBC against MDRB, paper disk diffusion; type: cell-based; details: Escherichia coli, ATCCBAA196
Text: (§17) The inhibition zone (IZ, mm±standard deviation) of pyrazole Schiff bases ( 6b, 7b, 7c, 8a, 8d and 9b) was
(§18) measurement according to the agar plate diffusion method against a panel of multidrug-resistant bacteria
(MDRB). […]

S. aureus ATCC 33591 [23] = test: MIC/MBC against MDRB, paper disk diffusion; type: cell-based; details: Staphylococcus aureus, ATCC33591
Text: as §17, §18
(MDRB). […]

[24] = system: S. aureus ATCC 43300 (MRSA); test: MIC/MBC against MDRB, paper disk diffusion; type: cell-based; details: Staphylococcus aureus
Text: as §17, §18
(MDRB). […]

[25] = system: P. aeruginosa ATCC BAA-2111; test: MIC/MBC against MDRB, paper disk diffusion; type: cell-based; details: Pseudomonas aeruginosa, ATCCBAA2111
Text: as §17, §18
(MDRB). […]

Vero cells (ATCC CCL-81) = test: Cytotoxicity on normal cells, MTT assay; type: cell-based, African green monkey; details: healthy non-cancer cells
Procedure: as §8, §9

S. aureus ATCC 33591 [26] = test: Inhibition zone against MDRB, agar plate diffusion; type: cell-based

## COc1ccc(Nc2n[nH]c(N=Cc3c(C)nn(-c4ccccc4)c3Cl)c2C(N)=O)cc1 [7a, 5-((5-Chloro-3-methyl-1-phenyl-1H-pyrazol-4-yl)methyleneamino)-3-(p-methoxyphenylamino)-1H-pyrazole-4-carboxamide]
Salmonella typhi [1]
  zone of inhibition at 500 µg/mL: 18 ± 0.16 mm
Candida albicans [2]; Ca, mm ± standard deviation, sample at 0.5 mg/mL
  zone of inhibition at 500 µg/mL: 13 ± 0.35 mm
Staphylococcus aureus [3]; Sa, mm ± standard deviation, sample at 0.5 mg/mL
  zone of inhibition at 500 µg/mL: 19 ± 0.31 mm
Fusarium oxysporum [4]; Fo, mm ± standard deviation, sample at 0.5 mg/mL
  zone of inhibition at 500 µg/mL: 15 ± 0.3 mm
Pseudomonas aeruginosa [5]; Pa, mm ± standard deviation, sample at 0.5 mg/mL
  zone of inhibition at 500 µg/mL: 20 ± 0.15 mm
Enterococcus faecalis [6]; Ef, mm ± standard deviation, sample at 0.5 mg/mL
  zone of inhibition at 500 µg/mL: 21 ± 0.11 mm
Bacillus subtilis [7]; Bs, mm ± standard deviation, sample at 0.5 mg/mL
  zone of inhibition at 500 µg/mL: 20 ± 0.4 mm
Escherichia coli [8]; Ec, mm ± standard deviation, sample at 0.5 mg/mL
  zone of inhibition at 500 µg/mL: 18 ± 0.2 mm
other
  melting point: 270 to 272 °C

## COc1ccc(Nc2n[nH]c(N=Cc3c(C)nn(-c4ccccc4)c3Cl)c2C(=O)Nc2ccc(C)cc2)cc1 [7c, 5-((5-Chloro-3-methyl-1-phenyl-1H-pyrazol-4-yl)methyleneamino)-3-(p-methoxyphenylamino)-N-p-tolyl-1H-pyrazole-4-carboxamide]
Salmonella typhi [1]
  zone of inhibition at 500 µg/mL: 29 ± 0.2 mm
Candida albicans [2]
  zone of inhibition at 500 µg/mL: 27 ± 0.5 mm
Staphylococcus aureus [3]
  zone of inhibition at 500 µg/mL: 33 ± 0.53 mm
Fusarium oxysporum [4]
  zone of inhibition at 500 µg/mL: 22 ± 0.11 mm
E. coli ATCC BAA-196 [9]
  Mean Diameter of Inhibition Zone against MDRB: 21 ± 0.3 mm
[10]
  Mean Diameter of Inhibition Zone against MDRB: 17 ± 0.37 mm
[11]
  IC50: 3.24 ± 0.41 µM
[12]
  IC50: 1.22 ± 0.23 µM
Pseudomonas aeruginosa [13]
  MBC: 88.8 µg/mL (≈ 164 µM)
Pseudomonas aeruginosa [13]; Pseudomonas aeruginosa
  MIC: 55.5 µg/mL (≈ 103 µM)
  MBC: 59.4 µg/mL (≈ 110 µM)
Salmonella typhi [14]
  MIC: 31.2 µg/mL (≈ 57.9 µM)
Salmonella typhi [14]; read-out: MBC
  MBC: 56.2 µg/mL (≈ 104 µM)
Enterococcus faecalis [15]
  MIC: 7.81 µg/mL (≈ 14.5 µM)
Bacillus subtilis [16]; B. subtilis
  Fold more potent than Tetracycline (MIC): 3 fold
  MBC: 18.5 µg/mL (≈ 34.3 µM)
Bacillus subtilis [16]; Bacillus subtilis
  MIC: 9.25 µg/mL (≈ 17.1 µM)
Bacillus subtilis [16]; Bacillus subtilis, B. subtilis
  MBC: 10.6 µg/mL (≈ 19.6 µM)
Staphylococcus aureus [17]
  MIC: 31.2 µg/mL (≈ 57.9 µM)
Escherichia coli [18]
  MIC: 18.5 µg/mL (≈ 34.3 µM)
Candida albicans [19]
  MFC: 41.6 µg/mL (≈ 77.1 µM)
  MIC: 31.2 µg/mL (≈ 57.9 µM)
Fusarium oxysporum [20]
  MFC: 87.5 µg/mL (≈ 162 µM)
  MIC: 55.5 µg/mL (≈ 103 µM)
[21]
  Mean Diameter of Inhibition Zone against MDRB: 22 ± 0.5 mm
E. coli ATCC BAA-196 [22]
  MBC: 14.8 µg/mL (≈ 27.5 µM)
  MIC: 7.81 µg/mL (≈ 14.5 µM)
S. aureus ATCC 33591 [23]
  MBC: 11.1 µg/mL (≈ 20.6 µM)
  MIC: 5.55 µg/mL (≈ 10.3 µM)
[24]
  MBC: 14.8 µg/mL (≈ 27.5 µM)
  MIC: 7.81 µg/mL (≈ 14.5 µM)
[25]
  MBC: 6.66 µg/mL (≈ 12.3 µM)
  MIC: 4.44 µg/mL (≈ 8.22 µM)
Pseudomonas aeruginosa [5]
  zone of inhibition at 500 µg/mL: 27 ± 0.73 mm
Enterococcus faecalis [6]
  zone of inhibition at 500 µg/mL: 29 ± 0.17 mm
Bacillus subtilis [7]
  zone of inhibition at 500 µg/mL: 32 ± 0.22 mm
Escherichia coli [8]
  zone of inhibition at 500 µg/mL: 30 ± 0.29 mm
Vero cells (ATCC CCL-81); Chlorocebus sabaeus, Vero, read-out: IC50 Vero, MTT
  IC50: > 120 µM
Vero cells (ATCC CCL-81); read-out: IC50 Vero, MTT
  IC50: 213.5 ± 0.57 µM
S. aureus ATCC 33591 [26]
  Mean Diameter of Inhibition Zone against MDRB: 21 ± 0.19 mm

From publication PMC7321065, “Discovery of New Schiff Bases Tethered Pyrazole Moiety: Design, Synthesis, Biological Evaluation, and Molecular Docking Study as Dual Targeting DHFR/DNA Gyrase Inhibitors with Immunomodulatory Activity” (Molecules, 2020)
